Square brackets hold non-standard residues; d marks the D form. Peptide text beside a SMILES is read from it.
What was measured:
[1] = tested on: spontaneous growth hormone secretory pulses; test: Spontaneous growth hormone secretory pulses in conscious rats under intravenous infusion; format: in vivo, Male Sprague-Dawley rats; conditions: Figure 5
Method: Evaluation in conscious rats. Male Sprague-Dawley rats are fitted so as to allow efficient intravenous treatment with control and test compounds as well as frequent blood sampling. Blood samples are tested for growth hormone (GH) levels by radioimmunoassay. Blood samples are taken over a 12 hour period. At a 6 hour time point, peptide 1 is infused intravenously (300 µg/hr) into conscious, freely moving male rats for two hours. Control animals receive saline infusions over the same time period. […] It is known, SRIF is required for growth hormone pulsatility and that an SRIF antagonist abolishes said pulsatility (see Tannenbaum, G.S. and Ling, N., Endocrinology, 115, 1952-1957, 1984, incorporated herein by reference).

SSTR2 = SSTR2 (Rattus norvegicus, UniProt P30680); test: cAMP accumulation in forskolin-stimulated GH4C1/SSTR2 cells (SPA radioimmunoassay); format: cell-based; set-up: expressed in transfected cells; host or cells: GH4C1 rat pituitary tumor cells (GH4C1/SSTR2); conditions: in the absence of SRIF (inverse agonist activity)
SSTR2, sequence (P30680 whole entry): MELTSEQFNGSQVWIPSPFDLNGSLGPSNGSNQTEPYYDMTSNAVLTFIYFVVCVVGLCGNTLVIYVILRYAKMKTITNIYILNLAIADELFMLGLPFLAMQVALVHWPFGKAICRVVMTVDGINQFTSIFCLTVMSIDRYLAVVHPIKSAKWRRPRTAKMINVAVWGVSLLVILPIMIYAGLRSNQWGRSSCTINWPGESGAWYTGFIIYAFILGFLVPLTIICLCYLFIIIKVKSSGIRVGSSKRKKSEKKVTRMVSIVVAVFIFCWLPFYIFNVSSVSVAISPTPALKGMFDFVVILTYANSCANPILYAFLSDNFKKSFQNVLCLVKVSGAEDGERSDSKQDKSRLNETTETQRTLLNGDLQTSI
Excerpt: A primary effect of SRIF upon mammalian cells is the reduction of cyclic adenosine 3',5'-monophosphate(cAMP) levels, via inhibition of adenylyl cyclase. This is the basis of a common assay for SRIF agonists and antagonists, whereby SRIF agonists reduce artificially stimulated cAMP levels, and SRIF antagonists reverse the effect of SRIF. The rat pituitary tumor cell line GH4C1 predominantly expresses SSTR2, and responds to SRIF and to forskolin, a stimulator of adenylate cyclase (see C.M. Eppler, et al., J. Biol. Chem., 267, 15603-15612, 1992, incorporated herein by reference). […] This increases the response to SRIF and provides a greater dynamic range for the measurement of SRIF antagonist activity.
Stimulation of cells. GH4C1/SSTR2 cells, grown in DMEM with 10% bovine serum, are released from a tissue culture dish by incubation for several minutes at 37° C with PBS containing 0.5 mM EDTA. Cells are washed in induction buffer (PBS containing 100 µM IBMX (an inhibitor of cAMP breakdown) and 2 mM CaCl2) at room temperature, and resuspended at 2 x 10^6/mL in induction buffer. Into each well of a 96-well tray are added 50 µL of a 2 X concentration of stimulants in induction buffer. […] Baseline cAMP levels are determined in samples with no added forskolin or SRIF, and each treatment is performed in triplicate.
cAMP assay. […] The 96-well tray is sealed, shaken at room temperature overnight and measured for bound radioligand in a MicroBeta liquid scintillation counter (Wallac, Gaithersburg. MD). The standard curve is determined for each experiment by performing a nonlinear regression (exponential decay) analysis of cpm measured for the cAMP standards vs. their log concentrations, and test sample values are determined by using Prism software (Graphpad Software Inc., San Diego, CA) and are shown in Table II and Figure 1.
The intrinsic activity of an SRIF antagonist is the percent reversal of the SSTR2 activation by SRIF or MK678, wherein 0% is defined by cAMP levels in samples treated with forskolin plus SRIF or MK678 and 100% is the cAMP level measured after treatment with forskolin alone. […]

SRIF receptors = target: T1, SRIF receptors (Rattus norvegicus, UniProt P30680); test: Yeast bioassay for SRIF antagonist activity (zone of growth inhibition of LY364 cells growing in response to SRIF); format: cell-based; conditions: 10 µL of 5 mg/mL on filter disk, S-14 10 nM
T1 construct: expressed in transfected cells; host or cells: Saccharomyces cerevisiae strain LY364
T1 sequence (P30680 whole entry): as above
Method: Agar plates containing LY364 cells that are growing in the presence of added SRIF are the basis for a sensitive SRIF antagonist assay, whereby zones of growth inhibition result from the addition of SRIF antagonists to the surface of the agar plate (see L.A. Price, et al., Molecular and Cellular Biology, 15, 6188-6195, 1995, incorporated herein by reference).
In this assay, LY364 cells are grown overnight in 2 mL of synthetic complete(SC) medium (3.4 g/L YNB without amino acids and ammonium sulfate, 10 g/L ammonium sulfate and 1.4 g/L CSM-ura-trp) with glucose (2%) and without uracil and tryptophan. These cells are washed and cultured for 4 to 8 hours in 5 mL of SC medium with lactate (3%) and without uracil and tryptophan, and finally grown overnight in 5 mL of SC medium with galactose (2%) and without uracil and tryptophan. Molten (50° C) SC agar medium with galactose (2%) and without uracil, tryptophan and histidine is adjusted to pH 6.8 with KOH, mixed with 2 x 10^4 cells/mL and SRIF (S-14, 10 nM) and poured into square (20 x 20 cm) petri dishes. Sterile filter disks are placed on the surface of the agar, and saturated with 10 µL of water or DMSO containing 5 mg/mL test peptides. After three days, the plates display a uniform cloudy background of […] cells growing in response to the added SRIF. […] This zone is quantified by measuring its diameter (mm), which varies according to the potency of the SRIF antagonist. Those peptides or mixtures of peptides displaying the largest zones of inhibition are further characterized.
Values are compared among samples in the same experiment, as the degree of yeast growth varies somewhat from assay to assay. For the first five sample types, in which progressively less complex mixtures of peptides are found, this assay is the primary determining factor in choosing which samples form the basis of subsequent syntheses.
Plates are read after 3 days. Samples shown in Table I in bold type are chosen for further synthesis. In Table I, all amino acids are D-amino acids and dashes represent undefined amino acid residues.

Yeast Assay (mm) (SRIF receptors; Table III, diameter of zone of growth inhibition): 20 mm | Inhibition Zone (mm) (SRIF receptors; sample type 4th iteration, read after 3 days, compare only within same experiment): 18 mm
SMILES: CC[C@@H](C)[C@@H](NC(=O)[C@@H](Cc1ccccc1)NC(=O)[C@@H](Cc1c[nH]cn1)NC(C)=O)C(=O)N[C@H](CCCNC(=N)N)C(=O)N[C@H](Cc1c[nH]c2ccccc12)C(=O)N[C@H](Cc1ccccc1)C(N)=O [Peptide 1, Ac-D-His-D-Phe-D-Ile-D-Arg-D-Trp-D-Phe-NH2] (Ac-[dH][dF][dI][dR][dW][dF]-NH2)
growth hormone secretory pulses upon withdrawal ([1]; conscious male rats, after end of the two hour infusion of 300 µg/hr): the pulses resume synchronously, and gradually desynchronize with time | spontaneous growth hormone secretory pulses during infusion ([1]; conscious, freely moving male rats, 300 µg/hr intravenously for two hours from 6 hour time point): abolition of these pulses | forskolin-stimulated cAMP levels (SSTR2): increase in forskolin-stimulated cAMP levels

From EP0863156A1, “Peptides useful as somatostatin antagonists” (American Cyanamid Company, priority 1997, dated 1998)
